The values below come from patent US11384063B2, “Modulators of estrogen receptor proteolysis and associated methods of use” (Arvinas Operations, Inc., priority 2017, dated 2022).

Structures are written as SMILES.

For one assay, the target named is T1, ERα (Homo sapiens, UniProt P03372).
T1 sequence (P03372 1-595): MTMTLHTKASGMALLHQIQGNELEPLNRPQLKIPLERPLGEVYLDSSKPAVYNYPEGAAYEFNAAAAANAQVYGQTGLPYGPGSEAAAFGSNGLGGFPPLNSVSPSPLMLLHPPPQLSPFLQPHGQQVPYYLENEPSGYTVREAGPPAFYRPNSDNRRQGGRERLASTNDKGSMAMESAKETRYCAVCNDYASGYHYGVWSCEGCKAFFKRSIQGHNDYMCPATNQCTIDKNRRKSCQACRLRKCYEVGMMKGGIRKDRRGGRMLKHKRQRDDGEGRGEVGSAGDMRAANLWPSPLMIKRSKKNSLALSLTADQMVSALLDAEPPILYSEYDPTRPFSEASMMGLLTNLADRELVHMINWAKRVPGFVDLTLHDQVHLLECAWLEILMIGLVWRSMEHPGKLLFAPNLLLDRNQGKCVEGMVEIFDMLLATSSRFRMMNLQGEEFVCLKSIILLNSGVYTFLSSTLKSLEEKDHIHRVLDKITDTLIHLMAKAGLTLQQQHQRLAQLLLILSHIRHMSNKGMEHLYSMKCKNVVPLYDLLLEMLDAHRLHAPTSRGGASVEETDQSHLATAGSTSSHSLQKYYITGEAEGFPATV
Briefly: ERE luciferase reporter gene assay in T47D-KBluc cells (target engagement). On the set-up: T47D human breast cancer cells stably transfected with estrogen responsive element/promoter/luciferase reporter gene; host or cells: T47D-KBluc cells. The format is cell-based. The settings on record: 10% FBS, 24 hours, Table 1 cereblon centric PROTACs, read-out: ER-α Luciferase IC50. A digest of the protocol:
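T47D-KBluc breast cancer cells, which carry a stable ERE-luciferase reporter, were grown in RPMI with 10% FBS (about 10 pM estrogen) and exposed to PROTACs for 24 h. The 12-point, 3-fold series ran from 300 nM to 2 pM. Luciferase was read after lysis, and IC50 was fitted from duplicates.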
For the compound `O=C1CCC(N2Cc3cc(OCCOCCOc4ccc(Oc5c(-c6ccc(Br)cc6)sc6cc(O)ccc56)cc4)ccc3C2=O)C(=O)N1` (stereo not drawn) [Compound 33, 3-[5-[2-[2-[4-[2-(4-bromophenyl)-6-hydroxy-benzothiophen-3-yl]oxyphenoxy]ethoxy]ethoxy]-1-oxo-isoindolin-2-yl]piperidine-2,6-dione], the IC50 (usually the concentration at which inhibition is half-maximal) worked out at 2.7 nM. With `O=C1CCC(N2Cc3cc(CNC(=O)C4CCN(CCOc5ccc(Oc6c(-c7ccc(Br)cc7)sc7cc(O)ccc67)cc5)CC4)ccc3C2=O)C(=O)N1` (stereo not drawn) [Compound 57, 1-(2-(4-(2-(4-bromophenyl)-6-hydroxybenzo[b]thiophen-3-yloxy)phenoxy)ethyl)-N-((2-(2,6-dioxopiperidin-3-yl)-1-oxoisoindolin-5-yl)methyl)piperidine-4-carboxamide], the IC50 was 3 nM.

With `O=C1CCC(N2C(=O)c3ccc(N4CCN(CCCCCOc5ccc(Oc6c(-c7ccc(Br)cc7)sc7cc(O)ccc67)cc5)CC4)cc3C2=O)C(=O)N1` (stereo not drawn) [Compound 61, 5-{4-[5-(4-{[2-(4-bromophenyl)-6-hydroxy-1-benzothiophen-3-yl]oxy}phenoxy)pentyl]piperazin-1-yl}-2-(2,6-dioxopiperidin-3-yl)-2,3-dihydro-1H-isoindole-1,3-dione], the IC50 worked out at 18.3 nM.

The same assay, now with this note: 10% FBS, 24 hours, Table 3 cereblon centric PROTACs, read-out: ER-α Luciferase IC50.
For `O=C1CCC(N2Cc3c(ccc(N4CCN(C5CCN(CCOc6ccc(Oc7c(-c8ccc(Br)cc8)sc8cc(O)ccc78)cc6)CC5)CC4)c3F)C2=O)C(=O)N1` (stereo not drawn) [Compound 195], the IC50 was 2.9 nM.

As for `O=C1CCC(N2Cc3cc(C4CCN(C5CCN(CCOc6ccc(Oc7c(-c8ccc(Br)cc8)sc8cc(O)ccc78)cc6)CC5)CC4)ccc3C2=O)C(=O)N1` (stereo not drawn) [Compound 196], the IC50 came to 8.6 nM. On to `O=C1CCC(N2C(=O)c3ccc(CCCCN4CCCN(CCOc5ccc(Oc6c(-c7ccc(Br)cc7)sc7cc(O)ccc67)cc5)CC4)cc3C2=O)C(=O)N1` (stereo not drawn) [Compound 197], for which the IC50 was 2.8 nM.

Take `O=C1CCC(N2Cc3cc(N4CCN(C5CC6(C5)CN(CCOc5ccc(Oc7c(-c8ccc(C(F)(F)F)cc8)sc8cc(O)ccc78)cc5)C6)CC4)ccc3C2=O)C(=O)N1` (stereo not drawn) [Compound 198]: the IC50 came to 10.2 nM.

For the compound `O=C1CCC(N2Cc3cc(N4CCN(CC5CCN(CCOc6ccc(Oc7c(-c8ccc(C(F)(F)F)cc8)sc8cc(O)ccc78)cc6)CC5)CC4)ccc3C2=O)C(=O)N1` (stereo not drawn) [Compound 200], the IC50 is 8.4 nM. Still for that read-out and setting: under `O=C1CCC(N2C(=O)c3ccc(N4CCN(CC5CCN(CCOc6ccc(Oc7c(-c8ccc(C(F)(F)F)cc8)sc8cc(O)ccc78)cc6)CC5)CC4)cc3C2=O)C(=O)N1` (stereo not drawn) [Compound 202] stands 14.8 nM. Same read-out and setting: the value for `O=C1CCC(N2Cc3c(cc(F)c(N4CCN(C5CCN(CCOc6ccc(Oc7c(-c8ccc(C(F)(F)F)cc8)sc8cc(O)ccc78)cc6)CC5)CC4)c3F)C2=O)C(=O)N1` (stereo not drawn) [Compound 203] was 4.7 nM; that for `O=C1CCC(N2Cc3cc(N4CCN(CC5CCN(CCOc6ccc(Oc7c(-c8ccc(C(F)(F)F)cc8)sc8cc(O)ccc78)cc6)CC5)CC4)c(F)cc3C2=O)C(=O)N1` (stereo not drawn) [Compound 204] was 16.4 nM; that for `O=C1CCC(N2Cc3c(cc(F)c(N4CCN(C5CC6(C5)CN(CCOc5ccc(Oc7c(-c8ccc(C(F)(F)F)cc8)sc8cc(O)ccc78)cc5)C6)CC4)c3F)C2=O)C(=O)N1` (stereo not drawn) [Compound 206] was 13.3 nM. The same measure, in the same setting: under `O=C1CCC(N2Cc3cc(N4CCN(CCCOc5ccc(Oc6c(-c7ccc(C(F)(F)F)cc7)sc7cc(O)ccc67)cc5)CC4)ccc3C2=O)C(=O)N1` (stereo not drawn) [Compound 207] stands 11.4 nM; under `O=C1CCC(N2Cc3c(ccc(N4CCN(CCCOc5ccc(Oc6c(-c7ccc(Br)cc7)sc7cc(O)ccc67)cc5)CC4)c3F)C2=O)C(=O)N1` (stereo not drawn) [Compound 208], 8.4 nM. For `O=C1CCC(N2C(=O)c3ccc(N4CC(CN5CCC(c6ccc(Oc7c(-c8ccc(Br)cc8)sc8cc(O)ccc78)cc6)CC5)C4)cc3C2=O)C(=O)N1` (stereo not drawn) [Compound 209], the IC50 was determined as 2.8 nM.

Take `O=C1CCC(N2Cc3cc(N4CCN(CCOc5ccc(Oc6c(-c7ccc(Br)cc7)sc7cc(O)ccc67)cc5)CC4)ccc3C2=O)C(=O)N1` (stereo not drawn) [Compound 210]: the IC50 was 2.3 nM. The same measure, in the same setting: the value for `O=C1CCC(N2C(=O)c3ccc(N4CCN(CCCCc5ccc(Oc6c(-c7ccc(Br)cc7)sc7cc(O)ccc67)cc5)CC4)cc3C2=O)C(=O)N1` (stereo not drawn) [Compound 211] was 31.6 nM; that for `O=C1CCC(N2C(=O)c3ccc(N4CCC(N5CC(Oc6ccc(Oc7c(-c8ccc(Br)cc8)sc8cc(O)ccc78)cc6)C5)CC4)cc3C2=O)C(=O)N1` (stereo not drawn) [Compound 212] was 15 nM; that for `O=C1CCC(N2Cc3cc(N4CCN(CCCOc5ccc(Oc6c(-c7ccc(OC(F)(F)F)cc7)sc7cc(O)ccc67)cc5)CC4)c(F)cc3C2=O)C(=O)N1` (stereo not drawn) [Compound 219] was 19.1 nM. The same measure, in the same setting: under `O=C1CCC(N2Cc3cc(N4CCN(CCCOc5ccc(Oc6c(-c7ccc(Br)cc7)sc7cc(O)ccc67)cc5)CC4)cc(F)c3C2=O)C(=O)N1` (stereo not drawn) [Compound 222] stands 8.9 nM. Turning to `O=C1CCC(N2Cc3cc(N4CCC(N5CC(Oc6ccc(Oc7c(-c8ccc(Br)cc8)sc8cc(O)ccc78)cc6)C5)CC4)ccc3C2=O)C(=O)N1` (stereo not drawn) [Compound 233], the IC50 came out at 2.1 nM.

On to `O=C1CCC(N2Cc3cc(N4CC(N5CCC(Oc6ccc(Oc7c(-c8ccc(Br)cc8)sc8cc(O)ccc78)cc6)CC5)C4)ccc3C2=O)C(=O)N1` (stereo not drawn) [Compound 240], for which the IC50 was 1.2 nM. The same measure, in the same setting: the value for `O=C1CCC(N2Cc3cc(N4CC(CN5CCC(c6ccc(Oc7c(-c8ccc(Br)cc8)sc8cc(O)ccc78)cc6)CC5)C4)ccc3C2=O)C(=O)N1` (stereo not drawn) [Compound 241] was 6.7 nM.

As for `O=C1CCC(N2Cc3nc(N4CCN(CC5CCN(c6c(F)cc(Oc7c(-c8ccc(Br)cc8)sc8cc(O)ccc78)cc6F)CC5)CC4)ccc3C2=O)C(=O)N1` (stereo not drawn) [Compound 242], the IC50 worked out at 18.7 nM.

The target of a further assay is T1, ERα. Briefly: Estrogen receptor-alpha (ERα) degradation assay in MCF7 cells using In-Cell Western assay. The format is cell-based. On the set-up: assessed for their activity in degrading ERα in MCF-7 cells via western blot; endogenous in cells; host or cells: MCF7 cells. The following applies: ER-alpha degradation in MCF7 cells, 5 days of incubation. The protocol: Estrogen Receptor-Alpha (ERα) Degradation Assay Using in-Cell Western™ Assay for Table 5.
Degradation of ERα by claimed compounds were determined in MCF7 cells using an In-Cell Western™ assay. Briefly, MCF7 cells were plated in 96-well plates (2000 cells per well in 100 μl media) and incubated at 37° C. under an atmosphere of 5% CO2 in a humidified incubator overnight. One-hundred (100) μI of media containing test compound (at 2x concentration) was added to the appropriate wells to provide 11 serially decreasing concentrations (top final concentration, 1 μM then 3-fold less for the next 10 concentrations); a vehicle control (DMSO) was also added for each compound. For each experiment, all compounds were assayed on duplicate plates. Cells were then incubated for 3 or 5 days in the above-mentioned environment. The assay was terminated by removal of media, a single wash with ice-cold PBS and the addition of 50 μl paraformaldehyde (PFA: 4% in PBS). After 15 minutes in PFA at room temperature, the cells were permeabilized in Tris-phosphate-buffered saline with Tween (0.1%) (TBST) supplemented with Triton X-100 (0.5%) for 15 minutes. Cells were then blocked in BSA (TBST with BSA, 3%) for one hour. Primary antibodies for the detection of ERa (rabbit monoclonal, 1:1000, Cell Signaling Technology Catalog #8644) and tubulin (mouse monoclonal, 1:5000, Sigma Catalog #T6074) in TBST with BSA (3%) were added. The cells were incubated overnight at 4° C. The cells were then washed thrice with TBST at room temperature and then incubated with anti-rabbit and anti-mouse fluorescently-labelled secondary antibodies (IRDye®; LI-COR; Lincoln, Nebr.) in LI-COR blocking buffer (Catalog #927-50000) for one hour at room temperature. Following 3 washes with TBST, the buffer was removed and the plates were read on an Odyssey® infrared imaging system (LI-COR®, Lincoln, Nebr.) at 700 nm and 800 nm. Using commercial software (ImageStudio™; LI-COR, Lincoln, Nebr.), the staining intensity for ERa and tubulin in each well was quantified and exported for analysis. For each data point, ERa intensity was normalized to tubulin intensity and for each compound all normalized intensity values were normalized to the vehicle control. DC50 and Dmax values were determined following a 4-parameter IC50 curve fit using ACAS dose response module (McNeil & Co Inc.).
As for `O=C1CCC(N2Cc3cc(OCCOCCOc4ccc(Oc5c(-c6ccc(Br)cc6)sc6cc(O)ccc56)cc4)ccc3C2=O)C(=O)N1` (stereo not drawn) [Compound 33, 3-[5-[2-[2-[4-[2-(4-bromophenyl)-6-hydroxy-benzothiophen-3-yl]oxyphenoxy]ethoxy]ethoxy]-1-oxo-isoindolin-2-yl]piperidine-2,6-dione], the DC50 (commonly the midpoint of the concentration-degradation curve) fell in the range of 1 to 10 nM and the Dmax (usually the greatest extent of degradation seen) fell in the range of 50 to 75%.

`O=C1CCC(N2Cc3cc(CNC(=O)C4CCN(CCOc5ccc(Oc6c(-c7ccc(Br)cc7)sc7cc(O)ccc67)cc5)CC4)ccc3C2=O)C(=O)N1` (stereo not drawn) [Compound 57, 1-(2-(4-(2-(4-bromophenyl)-6-hydroxybenzo[b]thiophen-3-yloxy)phenoxy)ethyl)-N-((2-(2,6-dioxopiperidin-3-yl)-1-oxoisoindolin-5-yl)methyl)piperidine-4-carboxamide] showed a DC50 of 1 to 10 nM and a Dmax of 50 to 75%. The matching figures for `O=C1CCC(N2C(=O)c3ccc(N4CCN(CCCCCOc5ccc(Oc6c(-c7ccc(Br)cc7)sc7cc(O)ccc67)cc5)CC4)cc3C2=O)C(=O)N1` (stereo not drawn) [Compound 61, 5-{4-[5-(4-{[2-(4-bromophenyl)-6-hydroxy-1-benzothiophen-3-yl]oxy}phenoxy)pentyl]piperazin-1-yl}-2-(2,6-dioxopiperidin-3-yl)-2,3-dihydro-1H-isoindole-1,3-dione]: 10 to 100 nM and 50 to 75%.

For the compound `O=C1CCC(N2Cc3cc(NCCCOCCCOCCCOc4ccc(Oc5c(-c6ccc(Br)cc6)sc6cc(O)ccc56)cc4)ccc3C2=O)C(=O)N1` (stereo not drawn) [Compound 94, 3-[5-[3-[3-[3-[4-[2-(4-bromophenyl)-6-hydroxy-benzothiophen-3-yl]oxyphenoxy]propoxy]propoxy]propylamino]-1-oxo-isoindolin-2-yl]piperidine-2,6-dione], the DC50 was in the range of 1 to 10 nM and the Dmax lay in the range of 50 to 75%. Regarding `O=C1CCC(N2Cc3cc(NCCCOCCOCCOc4ccc(Oc5c(-c6ccc(Br)cc6)sc6cc(O)ccc56)cc4)ccc3C2=O)C(=O)N1` (stereo not drawn) [Compound 95, 3-[5-[3-[2-[2-[4[2-(4-bromophenyl)-6-hydroxy-benzothiophen-3-yl]oxyphenoxy]ethoxy]ethoxy]propylamino]-1-oxo-isoindolin-2-yl]piperidine-2,6-dione], the Dmax is less than 50%.
